Measurements from ChEMBL document CHEMBL5500407, “Designing Chromane Derivatives as α2A-Adrenoceptor Selective Agonists via Conformation Constraint” (J Med Chem, 2024).

Tests used:
[1] = biological target: T1, Adrenergic receptor alpha-1 (Homo sapiens, UniProt P35348+P25100+P35368); experiment: Binding affinity to alpha1-adrenoceptor (unknown origin); assay type: protein assay
T1 sequence (P35348 whole entry): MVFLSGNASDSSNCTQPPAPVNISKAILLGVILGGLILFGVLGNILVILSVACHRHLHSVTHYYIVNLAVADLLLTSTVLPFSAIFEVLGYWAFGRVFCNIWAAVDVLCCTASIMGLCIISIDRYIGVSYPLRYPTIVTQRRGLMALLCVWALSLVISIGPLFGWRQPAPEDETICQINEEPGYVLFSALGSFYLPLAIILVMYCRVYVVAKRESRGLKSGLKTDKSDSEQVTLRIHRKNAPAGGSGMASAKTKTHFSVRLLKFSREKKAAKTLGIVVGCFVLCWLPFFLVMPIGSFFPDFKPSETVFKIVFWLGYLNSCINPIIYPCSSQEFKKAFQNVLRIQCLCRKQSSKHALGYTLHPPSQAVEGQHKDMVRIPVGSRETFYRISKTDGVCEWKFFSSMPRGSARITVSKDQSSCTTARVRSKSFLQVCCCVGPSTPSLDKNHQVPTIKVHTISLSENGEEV
T1 sequence (P25100 whole entry): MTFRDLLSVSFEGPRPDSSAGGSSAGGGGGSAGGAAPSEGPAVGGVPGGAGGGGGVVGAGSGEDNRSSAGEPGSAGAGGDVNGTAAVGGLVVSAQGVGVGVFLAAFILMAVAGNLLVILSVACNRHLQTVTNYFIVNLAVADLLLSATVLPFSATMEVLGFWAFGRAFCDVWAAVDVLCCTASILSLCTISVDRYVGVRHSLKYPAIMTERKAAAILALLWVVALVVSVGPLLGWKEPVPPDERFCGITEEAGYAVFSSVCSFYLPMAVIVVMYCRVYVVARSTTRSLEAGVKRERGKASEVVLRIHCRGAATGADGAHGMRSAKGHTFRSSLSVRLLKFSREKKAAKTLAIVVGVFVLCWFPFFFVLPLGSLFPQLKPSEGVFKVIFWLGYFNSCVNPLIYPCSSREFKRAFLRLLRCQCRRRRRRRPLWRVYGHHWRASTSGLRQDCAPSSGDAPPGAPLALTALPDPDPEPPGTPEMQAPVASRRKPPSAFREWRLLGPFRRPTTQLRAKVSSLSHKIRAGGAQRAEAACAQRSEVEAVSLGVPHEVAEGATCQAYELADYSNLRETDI
T1 sequence (P35368 whole entry): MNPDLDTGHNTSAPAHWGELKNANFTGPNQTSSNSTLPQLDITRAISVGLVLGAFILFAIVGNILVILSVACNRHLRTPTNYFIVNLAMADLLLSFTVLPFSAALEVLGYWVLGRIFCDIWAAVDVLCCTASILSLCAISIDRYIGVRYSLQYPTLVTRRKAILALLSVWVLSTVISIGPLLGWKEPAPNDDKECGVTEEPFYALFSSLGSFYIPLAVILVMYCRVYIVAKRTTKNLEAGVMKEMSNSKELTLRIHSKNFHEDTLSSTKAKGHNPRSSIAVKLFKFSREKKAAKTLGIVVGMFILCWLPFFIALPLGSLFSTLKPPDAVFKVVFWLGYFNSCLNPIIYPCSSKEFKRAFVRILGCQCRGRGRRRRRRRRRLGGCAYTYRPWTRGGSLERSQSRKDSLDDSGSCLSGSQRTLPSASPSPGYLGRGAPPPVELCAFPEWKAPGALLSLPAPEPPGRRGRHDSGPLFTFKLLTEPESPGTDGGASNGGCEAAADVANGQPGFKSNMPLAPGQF

[2] = biological target: T2, Adrenergic receptor alpha-2 (Homo sapiens, UniProt P08913+P18825+P18089); experiment: Binding affinity to alpha2-adrenoceptor (unknown origin); assay type: protein assay
T2 sequence (P08913 whole entry): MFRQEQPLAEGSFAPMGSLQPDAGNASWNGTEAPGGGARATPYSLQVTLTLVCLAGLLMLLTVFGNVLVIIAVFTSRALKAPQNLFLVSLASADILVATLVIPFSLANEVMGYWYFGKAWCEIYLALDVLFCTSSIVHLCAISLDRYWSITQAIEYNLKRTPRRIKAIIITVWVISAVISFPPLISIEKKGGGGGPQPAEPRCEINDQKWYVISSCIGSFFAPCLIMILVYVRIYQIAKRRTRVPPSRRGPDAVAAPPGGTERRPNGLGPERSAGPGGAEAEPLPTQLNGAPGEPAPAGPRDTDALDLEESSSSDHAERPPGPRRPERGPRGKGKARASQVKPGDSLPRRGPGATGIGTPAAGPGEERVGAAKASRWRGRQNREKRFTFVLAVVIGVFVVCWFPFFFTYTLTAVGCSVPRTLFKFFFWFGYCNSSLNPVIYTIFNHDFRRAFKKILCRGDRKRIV
T2 sequence (P18825 whole entry): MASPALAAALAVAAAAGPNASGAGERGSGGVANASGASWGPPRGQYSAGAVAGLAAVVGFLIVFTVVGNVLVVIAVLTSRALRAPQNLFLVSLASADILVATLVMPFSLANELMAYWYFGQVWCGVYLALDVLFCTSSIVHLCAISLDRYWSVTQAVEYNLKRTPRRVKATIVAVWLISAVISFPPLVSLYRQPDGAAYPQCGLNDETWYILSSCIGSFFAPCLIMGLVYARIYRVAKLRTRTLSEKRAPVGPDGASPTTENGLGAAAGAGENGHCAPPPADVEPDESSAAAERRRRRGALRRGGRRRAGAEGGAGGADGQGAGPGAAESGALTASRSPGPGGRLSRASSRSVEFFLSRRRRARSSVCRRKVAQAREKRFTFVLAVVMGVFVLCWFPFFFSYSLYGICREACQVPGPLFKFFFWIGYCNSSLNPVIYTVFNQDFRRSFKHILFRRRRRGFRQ
T2 sequence (P18089 whole entry): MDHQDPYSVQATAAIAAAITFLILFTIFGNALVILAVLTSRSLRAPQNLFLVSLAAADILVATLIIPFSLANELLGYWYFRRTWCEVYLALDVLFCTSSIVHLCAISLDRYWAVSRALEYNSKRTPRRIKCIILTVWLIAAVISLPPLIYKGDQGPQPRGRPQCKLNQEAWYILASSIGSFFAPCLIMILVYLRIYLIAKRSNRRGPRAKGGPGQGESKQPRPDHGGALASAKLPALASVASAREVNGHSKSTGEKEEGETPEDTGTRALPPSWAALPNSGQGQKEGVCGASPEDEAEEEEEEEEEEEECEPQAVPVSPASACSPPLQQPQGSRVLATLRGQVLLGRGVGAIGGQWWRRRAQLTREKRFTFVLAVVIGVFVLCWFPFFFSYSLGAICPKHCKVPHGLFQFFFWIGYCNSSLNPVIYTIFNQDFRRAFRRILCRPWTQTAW

[3] = biological target: T3, Alpha-1B adrenergic receptor (Homo sapiens, UniProt P35368); experiment: Binding affinity to human alpha1B-adrenoceptor
T3 sequence (P35368 whole entry): T1 sequence (P35368 whole entry)

[4] = biological target: T4, Alpha-1D adrenergic receptor (Homo sapiens, UniProt P25100); experiment: Binding affinity to human alpha1D-adrenoceptor
T4 sequence (P25100 whole entry): T1 sequence (P25100 whole entry)

[5] = biological target: T5, Alpha-2B adrenergic receptor (Homo sapiens, UniProt P18089); experiment: Agonist activity at human alpha2B-adrenoceptor
T5 sequence (P18089 whole entry): T2 sequence (P18089 whole entry)

[6] = biological target: T6, Alpha-2C adrenergic receptor (Homo sapiens, UniProt P18825); experiment: Agonist activity at human alpha2C-adrenoceptor
T6 sequence (P18825 whole entry): T2 sequence (P18825 whole entry)

[7] = biological target: T5, Alpha-2B adrenergic receptor; experiment: Agonist activity at alpha2B-adrenoceptor (unknown origin) expressed in U2OS-EGFP-NFAT2-alpha2B-AR cells assessed as increase in intracellular calcium level measured after 15 mins incubation by Micro automated microscopy; assay type: functional, cell-based
[8] = biological target: T6, Alpha-2C adrenergic receptor; experiment: Agonist activity at alpha2C-adrenoceptor (unknown origin) expressed in CHO-alpha2C-PKAcatEGFP cells assessed as increase in intracellular calcium level measured after 15 mins incubation by Micro automated microscopy; assay type: functional, cell-based
[9] = biological target: T7, Alpha-1A adrenergic receptor (Homo sapiens, UniProt P35348); experiment: Agonist activity at alpha1A-adrenoceptor (unknown origin) expressed in HEK293T cells assessed as fluorescence intensity measured after 30 mins by IP-one homogeneous time-resolved fluorescence assay; assay type: functional, cell-based
T7 sequence (P35348 whole entry): T1 sequence (P35348 whole entry)

[10] = Metabolic stability in mouse liver microsomes assessed as elimination half life; assay type: ADME, Microsome
[11] = Metabolic stability in mouse liver microsomes assessed as intrinsic clearance; assay type: ADME, Microsome; settings: read-out: CLH
[12] = biological target: T7, Alpha-1A adrenergic receptor
Description: Binding affinity to human alpha1A-adrenoceptor

`Cc1cccc2c1CCC2c1c[nH]cn1` (configuration not stated) gave a pKi [1] of 7.14 and a pKi [2] of 8.06.

For `Cc1cccc([C@H](C)c2cnc[nH]2)c1C` [DEXMEDETOMIDINE], the Ki [3] was 9.12 µM, the Ki [4] was 1230 nM and the EC50 [5] was 3.31 nM. The EC50 [6] was 28.8 nM, the EC50 [7] was 1.91 nM and the EC50 [8] was 5.37 nM. For the same molecule, the EC50 [9] was 13 nM, the half-life [10] was 156 min and the microsomal CLint [11] was 8.89 µL/min/mg. The Ki [12] was 1320 nM.
